# Source: PubChem BioAssay (NCI)
# Values joined by “and” are separate entries in the source; they are usually repeats but may differ in a detail not shown here. Identical values can stand only once.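 How tested: cells in 96-well plates exposed to compound for 48 hours at five concentrations. The concentration for 50% growth inhibition is given as GI50. At the TGI there is no net growth.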 Where a SMILES comes first, the peptide text is derived from it. The star is where a group is joined. Boc = CC(C)(C)OC(=O)*; Bn = c1ccc(C*)cc1
# Key:
# Assay in all cases: NCI tumour cell line growth inhibition, 48 h
# [1] = test system: UO-31 renal
# [2] = test system: SW-620 colon
# [3] = test system: SF-268 CNS
# [4] = test system: SK-MEL-5 melanoma
# [5] = test system: NCI-H23 lung
# [6] = test system: HCC-2998 colon
# [7] = test system: UACC-257 melanoma
# [8] = test system: HOP-62 NSCLC
# [9] = test system: LOX IMVI melanoma
# [10] = test system: HOP-92 NSCLC
# [11] = test system: CAKI-1 renal
# [12] = test system: SF-295 CNS
Compound,TGI [1] [µM],TGI [2],TGI [3],TGI [4],TGI [5],TGI [6],TGI [7],TGI [8],TGI [9],TGI [10],TGI [11] [µM],TGI [12],GI50 [5] [µM],GI50 [7] [µM],GI50 [8] [µM],GI50 [10] [µM],GI50 [4],GI50 [6],GI50 [12]
CN1CC2=C(NC(=S)NC2c2ccccc2Cl)/C(=C/c2ccccc2Cl)C1 (stereo unspecified),93.1,> 100 µM,> 100 µM,32.3 µM,> 100 µM,> 100 µM,> 100 µM,> 100 µM,> 100 µM,99.1 µM,> 100,> 100 µM,,,,,,,
C=C1c2nc3ccccc3n2C=C(c2ccc(Cl)cc2)N1c1ccc(OCCN2CCCCC2)cc1,> 45,> 45 µM,45 µM,> 45 µM,> 100 µM,> 100 µM,37.4 µM and > 100 µM,> 100 µM,> 45 µM,> 100 µM,> 45,> 45 µM,> 100,> 100,> 100,> 100,,,
NC(=O)CCC(NC(=O)c1c2ccccc2nc2ccccc12)C(=O)O (stereo unspecified),> 100,> 100 µM,> 100 µM,> 100 µM,> 100 µM,> 100 µM,> 100 µM,> 100 µM,> 100 µM,> 100 µM,> 100,> 100 µM,,,,,,,
NC(CCCCNCc1ccccc1)C(=O)O (stereo unspecified),> 100,> 100 µM,> 100 µM,> 100 µM,> 100 µM,> 100 µM,> 100 µM,> 100 µM,> 100 µM,> 100 µM,> 100,> 100 µM,,,,,,,
CC(=O)NNc1nc(C)c(C(=O)/C=C/c2ccc(Cl)c(Cl)c2)s1,> 100,> 100 µM,> 100 µM,> 100 µM,> 100 µM,> 100 µM,> 100 µM,> 100 µM,> 100 µM,> 100 µM,> 100,> 100 µM,,,,,,,
Cc1cccc(C)c1N=Nc1ccc(O)c(CN(C)C)c1,> 100,> 100 µM,> 100 µM,25.2 µM,> 100 µM,48.8 µM,> 100 µM,> 100 µM,> 100 µM,> 100 µM,> 100,> 100 µM,,,,,,,
O=c1[nH]nc(Cc2ccccc2)n1/N=C/c1ccc([N+](=O)[O-])cc1,> 100,> 100 µM,> 100 µM,> 100 µM,> 100 µM,> 100 µM,> 100 µM,> 100 µM,> 100 µM,> 100 µM,> 100,> 100 µM,,,,,,,
O=C1/C(=C/c2ccc(O)c(O)c2)CC/C1=C\c1ccc(O)c(O)c1,7.31,> 100 µM,26.7 µM,> 60.3 µM,11.3 µM,> 100 µM,> 100 µM,39 µM,> 56.1 µM,76.1 µM,> 57.7,> 100 µM,,,,,,,
CC(C)C(Sc1nc(-c2ccccc2)c(-c2ccccc2)[nH]1)c1n[nH]c(=S)n1-c1ccccc1 (stereo unspecified),57.2,> 100 µM,> 100 µM,31.5 µM,77.9 µM,46 µM,74.9 µM,> 100 µM,35.4 µM,72 µM,,57.3 µM,,,,,,,
COc1ccc(/C=C/C(=O)c2sc(-c3cccnc3)nc2C)cc1,> 100,> 100 µM,> 100 µM,> 100 µM,> 100 µM,> 100 µM,> 100 µM,> 100 µM,> 100 µM,> 100 µM,> 100,> 100 µM,,,,,,,
CCC1CCC2c3c([nH]c4ccc(C)cc34)C3C(=O)N(N(C)C)C(=O)C3C2C1 (stereo unspecified),> 100,> 100 µM,> 59.8 µM,> 100 µM,> 100 µM,> 100 µM,> 100 µM,> 100 µM,> 100 µM,> 100 µM,> 100,> 33.4 µM,,,,,,,
O=C1CC2CC(CC3(CO3)C2)C1F (stereo unspecified),> 100,,> 100 µM,> 100 µM,> 100 µM,> 100 µM,> 100 µM,> 100 µM,> 100 µM,> 100 µM,> 100,> 100 µM,,,,,,,
Cc1nc2c3c(ccc2[nH]c1=O)C(=O)c1ccccc1C3=O,> 100,> 100 µM,> 100 µM,> 100 µM,> 100 µM,> 100 µM,> 100 µM,> 100 µM,> 100 µM,> 100 µM,> 100,> 100 µM,,,,,,,
COc1ccc(/C=C2\CCC(CCN3CCOCC3)C2=O)cc1 (stereo unspecified),> 100,> 100 µM,> 100 µM,> 100 µM,> 100 µM,> 100 µM,> 100 µM,> 100 µM,> 100 µM,> 100 µM,> 100,> 100 µM,,,,,,,
Cc1ccsc1C(=S)Nc1ccc(Cl)c(/C=N/OC(C)C)c1,> 100,> 100 µM,> 100 µM,75.4 µM,> 100 µM,64.3 µM,> 100 µM,> 100 µM,> 100 µM,> 100 µM,> 100,> 100 µM,,,,,,,
COc1ccc2c(c1)[n+]([O-])c(/C(C)=N/NC(=O)c1ccccc1O)c(C)[n+]2[O-],> 100,> 100 µM,> 100 µM,> 100 µM,> 100 µM,> 100 µM,> 100 µM,> 100 µM,> 100 µM,> 100 µM,> 100,> 100 µM,,,,,,,
COc1cc(CNc2c3ccccc3nc3ccccc23)cc(OC)c1OC,11.5,10.1 µM,16.5 µM,7.83 µM,18.5 µM,11.9 µM,11.2 µM,11.7 µM,6.75 µM,16.7 µM,14.1,14.4 µM,,,,,,,
O=c1[nH]c(=O)n(CCOc2ccc(Cl)cc2)cc1Nc1ccccc1,> 100,> 100 µM,> 100 µM,> 100 µM,> 100 µM,> 100 µM,> 100 µM,> 100 µM,> 100 µM,> 100 µM,> 100,> 100 µM,,,,,,,

Compound,TGI [1] [µM],TGI [2],TGI [3],TGI [4],TGI [5],TGI [6],TGI [7],TGI [8],TGI [9],TGI [10],TGI [11] [µM],TGI [12],GI50 [5] [µM],GI50 [7] [µM],GI50 [8] [µM],GI50 [10] [µM],GI50 [4],GI50 [6],GI50 [12]
COc1ccc(-c2nc3c(C(=O)NCCN(C)C)cccc3c3ccccc23)cc1,5.16,14.5 µM,24.5 µM,3.3 µM,19.6 µM,3.85 µM,3.56 µM,13.3 µM,2.94 µM,12.3 µM,7.05,4.83 µM,,,,,,,
CN(C)c1ccc(/C=C(\NC(=O)c2ccccc2)C(=O)Nc2cccc(C(=O)NCCCO)c2)cc1,> 100,> 100 µM,> 100 µM,> 100 µM,> 100 µM,> 100 µM,> 100 µM,> 100 µM,> 100 µM,> 100 µM,> 100,> 100 µM,,,,,,,
CCOc1cccc(-c2cc(=O)c3cc4c(cc3[nH]2)OCO4)c1,35.2,> 100 µM,> 82.1 µM,> 100 µM,> 100 µM,0.695 µM,> 100 µM,> 100 µM,> 100 µM,6.04 µM,9.67,0.329 µM,,,,,,,
CNC(=O)C(CC(C)C)NC(=O)C(C)NC(=O)C(Cc1ccc(OCc2ccccc2)cc1)NC(=O)C(COCc1ccccc1)NC(=O)OC(C)(C)C (stereo unspecified) (Boc-S(Bn)Y(Bn)AL-NHMe; configuration not given here),> 100,31 µM and 28.7 µM,53.8 µM and 46.5 µM,> 100 µM and 23.9 µM,> 71.1 µM and 43.3 µM,> 87.3 µM and 9.17 µM,> 100 µM,> 53.2 µM and 38.1 µM,27.5 µM and 48.8 µM,> 80.8 µM and 51.7 µM,> 100,> 61 µM and 41.2 µM,,,,,47.9 µM and 11.7 µM,29.3 µM and 3.13 µM,> 43.9 µM and 21 µM
CN(C)CC1CCC/C(=C\c2ccccc2)C1=O (stereo unspecified),5.08,3.07 µM,7.44 µM,21.4 µM,22.8 µM,29 µM,7.45 µM,34.2 µM,3.2 µM,8.26 µM,3.2,35.2 µM,,,,,,,
CC(C)c1ccc(/C=C/c2cc(C(=O)NNC(=O)NC3CCCCC3)nc(=S)[nH]2)cc1,> 100,> 100 µM,> 100 µM,> 100 µM,> 100 µM,> 100 µM,> 100 µM,> 100 µM,> 100 µM,> 100 µM,> 100,> 100 µM,,,,,,,
CC(=O)Oc1ccc2cc(-c3ccc(OC(C)=O)c(OC(C)=O)c3)c(=O)oc2c1,> 100,> 100 µM,> 100 µM,,> 100 µM,> 100 µM,> 100 µM,> 100 µM,> 100 µM,95.2 µM,,> 100 µM,,,,,,,
CC(C)(C)[Si](C)(C)OCC1OC(n2ccc(=O)[nH]c2=O)C(O[Si](C)(C)C(C)(C)C)[C@]12O[C@@H]2CO (stereo partly specified),21.7,58.7 µM,42.5 µM,34.7 µM,30.2 µM,81.7 µM,39.7 µM,30.2 µM,40.9 µM,32.8 µM,38.7,23.7 µM,,,,,,,
C=CC1(c2ccc3ccccc3c2)OCC(CC)O1 (stereo unspecified),> 100,> 100 µM,> 100 µM,> 100 µM,96.2 µM,> 100 µM,> 100 µM,2.48 µM,44.3 µM,75.2 µM,,> 100 µM,,,,,,,
O=C(CC1(O)C(=O)Nc2c(Cl)cc(Cl)cc21)c1ccc(F)cc1 (stereo unspecified),> 100,> 100 µM,> 100 µM,,70.9 µM,> 100 µM,65 µM,> 100 µM,66.5 µM,> 100 µM,> 100,> 100 µM,,,,,,,
COC(=O)[C@]12CSC[C@H]1C[C@H](c1cccc3ccccc13)N2,> 100,> 100 µM,,> 100 µM,> 100 µM,> 100 µM,> 100 µM,> 100 µM,> 100 µM,> 100 µM,> 100,> 100 µM,,,,,,,
CCCCCCCCCCCCC(Br)C(C)=O (stereo unspecified),> 100,> 100 µM,> 100 µM,> 100 µM,> 100 µM,> 100 µM,> 100 µM,> 100 µM,> 100 µM,> 100 µM,,> 100 µM,,,,,,,
Cc1ccccc1Nc1nc(NNC(=O)Cc2ccccc2)nc(NNC(=O)c2ccncc2)n1,> 10,,> 10 µM,,,> 10 µM,> 10 µM,> 10 µM,> 10 µM,> 10 µM,> 10,,,,,,,,
CS(=O)(=O)O[C@H]1[C@H](O)c2ccccc2[C@@H]1N=[N+]=[N-],> 100,> 100 µM,,> 100 µM,> 100 µM,> 100 µM,> 100 µM,> 100 µM,> 100 µM,> 100 µM,> 100,> 100 µM,,,,,,,
O=S(=O)(CCC[C@H]1[C@@H](CCOCc2ccccc2)C2CCCN1O2)c1ccccc1 (stereo partly specified),> 100,> 100 µM,> 100 µM,> 100 µM,> 100 µM,> 100 µM,> 100 µM,> 100 µM,,> 100 µM,> 100,> 100 µM,,,,,,,
CC(C)OP(=O)(OC(C)C)C(=NCCN=C(NNc1ccccc1[N+](=O)[O-])P(=O)(OC(C)C)OC(C)C)NNc1ccccc1[N+](=O)[O-],71.5,> 100 µM,> 100 µM,,> 100 µM,> 100 µM,84.6 µM,> 100 µM,> 100 µM,> 100 µM,> 100,,,,,,,,
COC(=O)Cn1c(=O)oc2nc(-c3ccccc3)cc(C(F)(F)F)c21,> 100,> 100 µM,> 100 µM,61.9 µM,> 100 µM,> 100 µM,> 100 µM,> 100 µM,,89.3 µM,> 100,> 100 µM,,,,,,,
COC(=O)C(c1ccc(OC)cc1)N1C(=O)[C@@H](NC(=O)c2ccccc2)[C@H]1[C@@H](C)O (stereo partly specified),> 100,> 100 µM,> 100 µM,> 100 µM,> 100 µM,> 100 µM,> 100 µM,> 100 µM,> 100 µM,> 100 µM,,> 100 µM,,,,,,,
